Source: patent publication US20100249373A1, “SCREENING METHODS” (priority 2007, published 2010)

Key:
NCKX5 = assay: Western blot of NCKX5 protein after siRNA knockdown in human melanocytes; type: cell-based; conditions: 5 days after siRNA mediated knockdown; anti C-terminus pAb; FIG. 28
Method: FIG. 28—Western blot analysis of NCK5 after knockdown. Using Western blotting we have investigated NCKX5 protein expression 5 days after siRNA mediated knockdown (all 5 siRNA duplexes and controls were tested). Western blot was also used to evaluate the expression and processing (maturation) of tyrosinase (tyr) in the same samples. SDS-PAGE (10% PA for NCKX5, 4-12% for tyr, 5 μg protein/lane). A) Western blot for NCKX5: Detection via rabbit anti-NCKX5 pAb (anti C-terminus peptide). B) Western blot for tyr, via goat pAb (Santa Cruz). 1=No treatment, 2=scrambled siRNA control, 3-7=siRNA's 185, 260, 301, 492, 1110. […] These bands are absent in the samples where SLC24A5-specific duplexes were used (lanes 3-7). It is possible that the doublet represents the presence of alternate SLC24A5 splice variants.
Cultured Cells (trypsinised off of 6-well culture plates) were lysed on ice for 20 minutes in 1.5 ml eppendorfs using 100 μl per sample of 1% triton X-100 in dPBS containing protease inhibitor cocktail (Sigma-Aldrich, Poole, UK). Cell extracts were centrifuged (10 minutes at 13000 g) to separate melanin and cell debris from the solubilised protein. The protein concentration of each supernatant fraction was determined by BCA assay as described in A).
20 μg protein (as determined by BCA assay) was reconstituted into 20 μl of 1×LDS loading buffer (Invitrogen Ltd, Paisley, UK) containing 1× reducing agent (Invitrogen Ltd, Paisley, UK), heated to 40° C. for 30 minutes and loaded onto 10% Novex bis-tris acrylamide gels with 1×MOPS running buffer (Invitrogen Ltd, Paisley, UK). Kaleidoscope molecular weight markers (Bio-Rad Laboratories Ltd, Hemel Hempstead, UK) were run alongside samples for size determinations. Protein was transferred onto PVDF membrane by electrophoresis transfer, using a Bio-Rad mini-cell II trans-blotter and 1×Tris-Glycine transfer buffer (Invitrogen Ltd, Paisley, UK)+15% v/v methanol (100V for 1 hour).
Membranes containing transferred protein were “blocked” using 2% w/v skimmed milk protein (SMP) in PBS+0.05% tween20 (PBST) for 1 hour with gentle agitation. Peptide affinity purified rabbit polyclonal antibody (raised using a peptide equivalent to the C-terminus of NCKX5—GNNKIRGCGG) was diluted to 0.5 μg/ml using 2% SMP in PBST. The diluted antibody was incubated with the membrane for 2 hours at room temperature. The membrane was then rinsed with PBST (4×5 minutes washes). Peroxidase conjugated anti-rabbit IgG (Jackson ImmunoResearch Laboratories Inc. PA, USA) was diluted 1/4000 using 2% SMP in PBST and was incubated with the membranes for 1 hour. Finally, membranes were washed using 6×5 minute rinses with PBST. […]

[1] = tested on: lightly pigmented human melanocytes; assay: Quantitative assessment of melanogenesis (melanin content) after siRNA knockdown; type: cell-based; conditions: replicated x3, FIG. 27
Method: FIG. 27—Quantitative assessment of melanogenesis. A decrease in post-treatment melanin content is noted for duplex (492) in lightly pigmented human melanocytes (replicated ×3).
To each pellet of melanin+cell debris obtained in section 2), 0.5 ml of diethyl ether:ethanol (1:1 ratio) was added. Eppendorfs were vortexed vigorously for 30 seconds and centrifuged at 13000 g for 5 minutes. The ether layer was carefully removed to waste and a further 0.5 ml was added. The tubes were agitated and centrifuged as before. The liquid phase was again removed and the melanin pellets were allowed to air dry at room temperature for 10 minutes. Melanin pellets were solubilised by the addition of 200 μl of 1M NaOH+10% DMSO and incubation (with occasional agitation) at 50° C. for 1 hour. 80 μl aliquots of each sample were transferred to a 96-well microtitre plate in duplicate. OD^450 of each sample was determined and the melanin content of each fraction was calculated from a synthetic melanin standard curve, prepared as described above. In treatment comparisons, results were expressed as μg melanin per μg protein.
Primary human melanocytes isolated from lightly pigmented or darkly pigmented neonatal foreskin were obtained from Cascade Biologics. Melanocyte Growth Medium (MGM) refers to Medium 254 (Cascade Biologics) supplemented with HMGS (Cascade Biologics). […]

Substance	NCKX5 Western blot bands of approx. 42 and 44 kDa (NCKX5)	post-treatment melanin content [1]
185 (sense AGGGCCACAGGAAATAGCACCCAAT; antisense TCCCGGTGTCCTTTATCGTGGGTTA; chemistry not given here; one strand is listed 3' to 5') [compound 185]	absent	
260 (sense GAGCGCAGAGATGGAGGCATCATAA; antisense CTCGCGTCTCTACCTCCGTAGTATT; chemistry not given here; one strand is listed 3' to 5') [compound 260]	absent	
301 (sense CGTTTACATGTTCATGGCCATATCT; antisense GCAAATGTACAAGTACCGGTATAGA; chemistry not given here; one strand is listed 3' to 5') [compound 301]	absent	
492 (sense GCACCATCCTTGGATCTGCAATTTA; antisense CGTGGTAGGAACCTAGACGTTAAAT; chemistry not given here; one strand is listed 3' to 5') [compound 492]	absent	decrease
